Structures can show the parent of a compound that is named as a salt. Each block holds one molecule with its values, some of them ahead of it.
Key:
[1] = Solid state (polymorphic) stability of crystalline forms on storage, humidity, heat, pressure or grinding; assay type: physicochemical; conditions: for stability (conversion to any other solid state form): 'stable' as defined in b57: less than 20% conversion at 60% RH/RT or 75% RH/40° C. for at least 1 month, or at 80-100% RH 7 days, 100° C. 30 minutes, 3 Ton 1 minute, strong grinding
Experimental: As used herein the term “stable” in relation to crystalline Branaplam and salts thereof refers to less than 20%, less than 10%, less than 5%, less than 2%, less than 1%, or less than 0.5% conversion of crystalline Branaplam and salts thereof to any other solid state form of Branaplam when kept in storage for long term stability e.g. 60% RH/RT or 75% RH/40° C. for at least 1 month. Alternatively, crystalline Branaplam and salts thereof are stable when exposed to high humidity e.g. 80-100% RH for 7 days, high temperature e.g. 100° C. for 30 minutes, high mass pressure e.g. 3 Ton for 1 minute or upon strong grinding.

[2] = Hygroscopicity: water absorption at 80% RH for 24 hours at RT, e.g. by TGA; assay type: physicochemical; conditions: 'non-hygroscopic' as defined in b56: less than 0.2% (w/w) absorption of water at 80% RH for 24 hours at RT
Experimental: As used herein the term non-hygroscopic in relation to crystalline Branaplam and salts thereof refers to less than 0.2% (w/w) absorption of water by the crystalline Branaplam, when exposed to 80% relative humidity (“RH”) for 24 hours at room temperature (“RT”), as determined, for example, by TGA.

- stability (conversion to any other solid state form) [1]: stable
Compound: CC1(C)CC(Oc2ccc(-c3ccc(-c4cn[nH]c4)cc3O)nn2)CC(C)(C)N1 [Branaplam Form B1, Branaplam]

- stability (conversion to any other solid state form) ([1]; hydrochloride): surprisingly stable
- hygroscopicity [2]: non-hygroscopic
Compound: CC1(C)CC(Oc2ccc(-c3ccc(-c4cn[nH]c4)cc3O)nn2)CC(C)(C)N1 [Branaplam hydrochloride Form C1, Branaplam hydrochloride]

- stability upon heating and humidity ([1]; heating and humidity, b57 gives e.g. 100° C. for 30 minutes, 80-100% RH for 7 days): stable upon heating and humidity
Compound: CC1(C)CC(Oc2ccc(-c3ccc(-c4cn[nH]c4)cc3O)nn2)CC(C)(C)N1 [Branaplam hydrochloride Form C3, Branaplam hydrochloride]
